Reference: patent publication US20070172957A1, “Methods of identifying anti-inflammatory macrolides” (TAISHO PHARMACEUTICAL CO., LTD., priority 2004, published 2007)

Test system: genes predictive for the anti-inflammatory macrolide effect
Test: Genes statistically predictive of Clari response: differentially expressed with Clari but not the inactive macrolides MAA or Josa (Appendix E)
Assay type: cell-based
Source text: In the case of the above-mentioned (i) related to arachidonic acid biosynthesis, specifically, methods of the embodiment involve assaying whether a test macrolide alters biosynthesis of arachidonic acid, alters the expression or activities of enzymes involved in the biosynthesis or activation of arachidonic acid (e.g., arachidonic acid CoA synthetase, delta-6 desaturase, fatty acid elongase, and delta-5 desaturase, AA-related genes in Tables 2 and 3), or alters the expression of genes identified as predictive for the anti-inflammatory macrolide effect (Appendix E). Assays in which arachidonic acid or gene expression or enzymatic activity is detected can be carried out after contacting a cell with a test macrolide. Any cell line that secretes prostaglandin or produces arachidonic acid can be used. Epithelial and macrophages lines (e.g., A549 or THP-1) are suitable for this purpose; other cell lines can be identified by carrying out assays such as those described in the specific Examples, below. Alternatively, screening assays can be carried out after adding a test macrolide to an in vitro cell system (e.g., a cellular extract or liver microsome preparation) or an in vitro enzyme assay system.

CC[C@H]1OC(=O)[C@H](C)[C@@H](O[C@H]2C[C@@](C)(OC)[C@@H](O)[C@H](C)O2)[C@H](C)[C@@H](O[C@@H]2O[C@H](C)C[C@H](N(C)C)[C@H]2O)[C@](C)(OC)C[C@@H](C)C(=O)[C@H](C)[C@@H](O)[C@]1(C)O [clarithromycin]
group mean, gene SERPING1 (SpotID 46579, MAA and Josa vs. Clari): 0.86
group mean, gene C12orf8 (SpotID 46586, MAA and Josa vs. Clari): 1.22
mean group, FLJ20699 (SpotID 46633, pooled group mean): 0.81
mean group, ARHGAP1 (SpotID 46648, pooled group mean): 0.96
group mean, gene KIAA1172 (SpotID 46679, MAA and Josa vs. Clari): 0.91
mean group, KIAA1172 (SpotID 46679, pooled group mean): 0.92
group mean, gene MKNK2 (SpotID 46825, MAA and Josa vs. Clari): 1.15
mean group, MKNK2 (SpotID 46825, pooled group mean): 1.12
group mean, gene PRKAR1A (SpotID 46838, MAA and Josa vs. Clari): 0.92
group mean, gene ARHGDIA (SpotID 46843, MAA and Josa vs. Clari): 0.91
mean group, ARHGDIA (SpotID 46843, pooled group mean): 0.93
group mean, gene HEXA (SpotID 46882, MAA and Josa vs. Clari): 1.14
group mean, gene CDIPT (SpotID 46896, MAA and Josa vs. Clari): 1.04
mean group, CDIPT (SpotID 46896, pooled group mean): 1.01
mean group, PACE (SpotID 46923, pooled group mean): 1.09
group mean, gene METAP2 (SpotID 46935, MAA and Josa vs. Clari): 0.88
mean group, METAP2 (SpotID 46935, pooled group mean): 0.89
group mean, gene HSPBP1 (SpotID 46979, MAA and Josa vs. Clari): 0.87
mean group, EREG (SpotID 46988, pooled group mean): 0.85
group mean, gene TFPI2 (SpotID 46991, MAA and Josa vs. Clari): 0.57
group mean, gene C2orf3 (SpotID 47034, MAA and Josa vs. Clari): 0.87
mean group, C2orf3 (SpotID 47034, pooled group mean): 0.90
group mean, gene NFRKB (SpotID 47056, MAA and Josa vs. Clari): 0.82
group mean, gene GOLGB1 (SpotID 47111, MAA and Josa vs. Clari): 1.17
group mean, gene MCM2 (SpotID 47123, MAA and Josa vs. Clari): 0.78
group mean, gene KIAA0251 (SpotID 47131, MAA and Josa vs. Clari): 1.07
group mean, gene ARHGAP1 (SpotID 47192, MAA and Josa vs. Clari): 0.94
group mean, gene ITGB5 (SpotID 47212, MAA and Josa vs. Clari): 1.12
mean group, NUBP1 (SpotID 47241, pooled group mean): 0.95
group mean, gene AKR1A1 (SpotID 47249, MAA and Josa vs. Clari): 1.08
group mean, gene HKE4 (SpotID 47251, MAA and Josa vs. Clari): 1.13
mean group, EPOR (SpotID 47314, pooled group mean): 1.14
group mean, gene ADAM11 (SpotID 47352, MAA and Josa vs. Clari): 1.18
mean group, ADAM11 (SpotID 47352, pooled group mean): 1.10
group mean, gene ERF (SpotID 47354, MAA and Josa vs. Clari): 1.00
mean group, P4HB (SpotID 47366, pooled group mean): 1.18
group mean, gene MTHFD1 (SpotID 47406, MAA and Josa vs. Clari): 0.93
mean group, CETN2 (SpotID 47415, pooled group mean): 1.18
group mean, gene SNK (SpotID 47418, MAA and Josa vs. Clari): 0.77
mean group, SNK (SpotID 47418, pooled group mean): 0.82
mean group, GCS1 (SpotID 47432, pooled group mean): 1.02
group mean, gene DCTN1 (SpotID 47439, MAA and Josa vs. Clari): 0.93
mean group, DCTN1 (SpotID 47439, pooled group mean): 0.95
group mean, gene RANBP1 (SpotID 47446, MAA and Josa vs. Clari): 0.83
mean group, RANBP1 (SpotID 47446, pooled group mean): 0.89
mean group, MSH3 (SpotID 47504, pooled group mean): 0.99
mean group, SERPINA1 (SpotID 47522, pooled group mean): 0.95
group mean, gene PTK2B (SpotID 47524, MAA and Josa vs. Clari): 1.08
group mean, gene ARHGDIA (SpotID 47535, MAA and Josa vs. Clari): 0.91
group mean, gene TRAP1 (SpotID 47622, MAA and Josa vs. Clari): 0.89
mean group, TRAP1 (SpotID 47622, pooled group mean): 0.94
group mean, gene HSPA9B (SpotID 47661, MAA and Josa vs. Clari): 0.90
mean group, NR4A2 (SpotID 47679, pooled group mean): 1.14
group mean, gene HSPA9B (SpotID 47694, MAA and Josa vs. Clari): 0.90
mean group, HSPA9B (SpotID 47694, pooled group mean): 0.95
group mean, gene MAD4 (SpotID 47705, MAA and Josa vs. Clari): 1.42
group mean, gene NBS1 (SpotID 47754, MAA and Josa vs. Clari): 0.89
mean group, NBS1 (SpotID 47754, pooled group mean): 0.97
group mean, gene KIAA1922 (SpotID 47755, MAA and Josa vs. Clari): 0.79
group mean, gene POLA (SpotID 47776, MAA and Josa vs. Clari): 0.86
mean group, POLA (SpotID 47776, pooled group mean): 0.89
group mean, gene BET3 (SpotID 47793, MAA and Josa vs. Clari): 1.08
group mean, gene GOT1 (SpotID 47802, MAA and Josa vs. Clari): 0.93
mean group, GOT1 (SpotID 47802, pooled group mean): 0.94
group mean, gene ENTPD6 (SpotID 47811, MAA and Josa vs. Clari): 1.11
mean group, ENTPD6 (SpotID 47811, pooled group mean): 1.06
mean group, SSI-1 (SpotID 47846, pooled group mean): 0.93
group mean, gene PRLR (SpotID 47850, MAA and Josa vs. Clari): 0.99
mean group, PRLR (SpotID 47850, pooled group mean): 0.99
group mean, gene ERF (SpotID 47898, MAA and Josa vs. Clari): 1.01
group mean, gene YWHAE (SpotID 47911, MAA and Josa vs. Clari): 0.95
group mean, gene CCNE2 (SpotID 47926, MAA and Josa vs. Clari): 0.73
group mean, gene P4HA1 (SpotID 47935, MAA and Josa vs. Clari): 1.27
mean group, P4HA1 (SpotID 47935, pooled group mean): 1.18
group mean, gene CTSB (SpotID 47937, MAA and Josa vs. Clari): 1.15
group mean, gene INPP5E (SpotID 47939, MAA and Josa vs. Clari): 0.89
group mean, gene SF3B3 (SpotID 47947, MAA and Josa vs. Clari): 0.93
group mean, gene BCKDK (SpotID 47949, MAA and Josa vs. Clari): 0.94
group mean, gene DNASE1L1 (SpotID 47950, MAA and Josa vs. Clari): 1.06
mean group, DNASE1L1 (SpotID 47950, pooled group mean): 1.03
group mean, gene COX15 (SpotID 47951, MAA and Josa vs. Clari): 0.94
mean group, USF2 (SpotID 47973, pooled group mean): 1.05
group mean, gene THBS1 (SpotID 47987, MAA and Josa vs. Clari): 0.60
mean group, THBS1 (SpotID 47987, pooled group mean): 0.71
mean group, RPN2 (SpotID 47988, pooled group mean): 1.02
group mean, gene PTGER1 (SpotID 47995, MAA and Josa vs. Clari): 0.73
group mean, gene CTSH (SpotID 48000, MAA and Josa vs. Clari): 1.22
mean group, CUTL1 (SpotID 48004, pooled group mean): 1.02
group mean, gene BCL2L2 (SpotID 48006, MAA and Josa vs. Clari): 1.02
mean group, SRF (SpotID 48026, pooled group mean): 1.03
group mean, gene SCN1B (SpotID 48121, MAA and Josa vs. Clari): 1.07
mean group, FRDA (SpotID 48137, pooled group mean): 0.90
group mean, gene SFRS7 (SpotID 48149, MAA and Josa vs. Clari): 0.85
mean group, SFRS7 (SpotID 48149, pooled group mean): 0.88
group mean, gene ZAP3 (SpotID 48160, MAA and Josa vs. Clari): 0.92
mean group, ZAP3 (SpotID 48160, pooled group mean): 0.95
group mean, gene SNAPC1 (SpotID 48182, MAA and Josa vs. Clari): 0.87
group mean, gene OPA1 (SpotID 48192, MAA and Josa vs. Clari): 0.90
group mean, gene BAT8 (SpotID 48214, MAA and Josa vs. Clari): 1.11
group mean, gene MAPK12 (SpotID 48233, MAA and Josa vs. Clari): 1.05
mean group, MAPK12 (SpotID 48233, pooled group mean): 1.03
group mean, gene DAXX (SpotID 48235, MAA and Josa vs. Clari): 0.93
group mean, gene GRB2 (SpotID 48266, MAA and Josa vs. Clari): 1.06
mean group, GRB2 (SpotID 48266, pooled group mean): 1.04
group mean, gene ARHC (SpotID 48280, MAA and Josa vs. Clari): 1.01
group mean, gene GCN5L1 (SpotID 48301, MAA and Josa vs. Clari): 1.02
mean group, GCN5L1 (SpotID 48301, pooled group mean): 1.01
group mean, gene FN1 (SpotID 48328, MAA and Josa vs. Clari): 0.53
group mean, gene DNMT1 (SpotID 48333, MAA and Josa vs. Clari): 0.79
mean group, CCT3 (SpotID 48345, pooled group mean): 1.03
group mean, gene FN1 (SpotID 48348, MAA and Josa vs. Clari): 0.53
group mean, gene CNOT2 (SpotID 48363, MAA and Josa vs. Clari): 0.92
group mean, gene MAPK9 (SpotID 48365, MAA and Josa vs. Clari): 0.92
mean group, MAPK9 (SpotID 48365, pooled group mean): 0.94
group mean, gene CNOT2 (SpotID 48396, MAA and Josa vs. Clari): 0.91
group mean, gene HIF1A (SpotID 48397, MAA and Josa vs. Clari): 0.89
group mean, gene MGEA5 (SpotID 48411, MAA and Josa vs. Clari): 1.19
mean group, MGEA5 (SpotID 48411, pooled group mean): 1.13
group mean, gene SERPINB1 (SpotID 48415, MAA and Josa vs. Clari): 1.32
mean group, SERPINB1 (SpotID 48415, pooled group mean): 1.28
group mean, gene M6PR (SpotID 48451, MAA and Josa vs. Clari): 1.12
group mean, gene DDC (SpotID 48456, MAA and Josa vs. Clari): 0.94
mean group, DDC (SpotID 48456, pooled group mean): 0.97
mean group, BARD1 (SpotID 48461, pooled group mean): 0.86
group mean, gene MCM5 (SpotID 48470, MAA and Josa vs. Clari): 0.68
group mean, gene RBM3 (SpotID 48471, MAA and Josa vs. Clari): 0.87
mean group, SpotID 48486 (SpotID 48486 (gene symbol not given), pooled group mean): 0.94
group mean, gene RPL13A (SpotID 48500, MAA and Josa vs. Clari): 0.90
mean group, RPL13A (SpotID 48500, pooled group mean): 0.92
group mean, gene USP24 (SpotID 48508, MAA and Josa vs. Clari): 0.87
group mean, gene ARAF1 (SpotID 48521, MAA and Josa vs. Clari): 0.95
mean group, ARAF1 (SpotID 48521, pooled group mean): 0.98
group mean, gene APLP2 (SpotID 48530, MAA and Josa vs. Clari): 1.15
mean group, APLP2 (SpotID 48530, pooled group mean): 1.10
mean group, NFE2L1 (SpotID 48557, pooled group mean): 1.06
mean group, XBP1 (SpotID 48620, pooled group mean): 1.10
group mean, gene DIP2 (SpotID 48643, MAA and Josa vs. Clari): 0.87
group mean, gene KIAA0323 (SpotID 48644, MAA and Josa vs. Clari): 1.14
group mean, gene SDCBP (SpotID 48646, MAA and Josa vs. Clari): 1.11
mean group, SDCBP (SpotID 48646, pooled group mean): 1.08
mean group, FECH (SpotID 48654, pooled group mean): 0.98
group mean, gene CHK (SpotID 48672, MAA and Josa vs. Clari): 1.01
group mean, gene HSPBP1 (SpotID 48693, MAA and Josa vs. Clari): 0.87
mean group, HSPBP1 (SpotID 48693, pooled group mean): 0.91
group mean, gene SIGIRR (SpotID 48705, MAA and Josa vs. Clari): 1.12
group mean, gene P4HA1 (SpotID 48707, MAA and Josa vs. Clari): 1.25
mean group, P4HA1 (SpotID 48707, pooled group mean): 1.18
group mean, gene MKNK2 (SpotID 48713, MAA and Josa vs. Clari): 1.22
mean group, PPP3CB (SpotID 48717, pooled group mean): 0.95
group mean, gene IKKE (SpotID 48725, MAA and Josa vs. Clari): 0.97
mean group, IKKE (SpotID 48725, pooled group mean): 0.94
mean group, RALA (SpotID 48732, pooled group mean): 1.06
mean group, MAFB (SpotID 48747, pooled group mean): 0.93
group mean, gene KIAA0217 (SpotID 48804, MAA and Josa vs. Clari): 0.85
mean group, KIAA0217 (SpotID 48804, pooled group mean): 0.88
